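Compound exposure: 48 hours, 5 concentrations, 96-well plates. At the GI50, growth is halved.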 Activity calls are given as the source filed them. Cut-off read from the data, not from the text of the source: active = GI50 up to about 1.1 µM and inactive = higher. Non-standard residues stand in square brackets, D forms with d. Residues, ends and D or L forms follow the SMILES beside them. *: point of attachment. Phe(4-NO2) = N[CH](Cc1ccc([N+](=O)[O-])cc1)C(=O)O; Boc = CC(C)(C)OC(=O)*

What all share (assay): inhibition of tumour cell growth, NCI panel, 48 h
Assay [1] relates to SK-MEL-28.
Assay [2] relates to T47D.
In assay [3] the test system is KM12.
The subject of assay [4] is SF-539.
Assay [5] has as its system SNB-19.
The subject of assay [6] is NCI-H23.
In assay [7] the test system is U-251.
For assay [8], the system named is SNB-75.
In assay [9] the test system is SK-MEL-2.
For assay [10], the system named is HOP-92.
The test system of assay [11] is Hs-578T.
The test system of assay [12] is 786-0.
Assay [13] has as its system TK-10.
The subject of assay [14] is CAKI-1.
In assay [15] the test system is UACC-62.
Assay [16] concerns MDA-MB-435.
The test system of assay [17] is HOP-62.
The subject of assay [18] is K562.
Assay [19] concerns MDA-N.
The test system of assay [20] is MCF7.

Consider `CC(=O)NNc1nc(C)c(C(=O)NNC(=O)C(=O)Nc2nc3ccc([N+](=O)[O-])cc3s2)s1`, for which the GI50 was 65.2 µM (inactive) in assay [1]; 22.6 µM (inactive) in assay [2]; 33.9 µM (inactive) in assay [3]; 44.7 µM (inactive) in assay [4]; 81.7 µM (inactive) in [5]; 44.1 µM (inactive) in assay [6]. Besides, the GI50 was 47.5 µM (inactive) in [7]; 29.4 µM (inactive) in assay [8]; 56.9 µM (inactive) in [9]; 28.8 µM (inactive) in assay [10]; 51.6 µM (inactive) in [11]; 61.5 µM (inactive) in assay [12]. For the same compound, the GI50 in assay [13] is 50.4 µM (inactive); in [14], 30.5 µM (inactive); in assay [15], 51.6 µM (inactive); in assay [16], 60.4 µM (inactive); in [17], > 82.6 µM (inactive); in assay [18], 25 µM (inactive). Besides, the results for the GI50 in assay [19] and in assay [20] were 45.9 µM (inactive) and 31 µM (inactive), respectively.

Take `COc1cc2c(cc1OC)C1(c3ccccc3)CN(C2)Cc2cc(OC)c(OC)cc21`: the GI50 is > 100 µM (inactive) in assay [1]; 35.6 µM (inactive) in assay [2]; 30.8 µM (inactive) in [3]; 19.3 µM (inactive) in [4]; 44.5 µM (inactive) in assay [5]; 24.5 µM (inactive) in assay [6]. Also, the GI50 in assay [7] is 22.2 µM (inactive); in assay [8], 27.9 µM (inactive); in assay [9] it was 25.7 µM (inactive); in assay [10], 32.6 µM (inactive); in assay [11] it was 27.5 µM (inactive); in assay [12] it was 31.6 µM (inactive). The GI50 in assay [13] is 44.7 µM (inactive); in assay [14], 40 µM (inactive); in assay [15], 32.3 µM (inactive); in [16], 14.5 µM (inactive); in [17] it was 40.6 µM (inactive); in [18], 29.1 µM (inactive). In addition, the values for the GI50 in [19] and in [20] were > 100 µM (inactive) and 33.3 µM (inactive), respectively.

In the case of `Cc1nc2sc(CCl)nn2c(=O)c1Cl`, the GI50 in [1] is 12.8 µM (inactive); in assay [2], 13.1 µM (inactive); in assay [3], 11.9 µM (inactive); in [4], 16.7 µM (inactive); in assay [5], 16.3 µM (inactive); in assay [6] it was 17.4 µM (inactive). Moreover, the GI50 is 6.08 µM (inactive) in assay [7]; 10.9 µM (inactive) in [8]; 11.1 µM (inactive) in [9]; 5.7 µM (inactive) in assay [10]; 19.1 µM (inactive) in assay [11]; 10.6 µM (inactive) in assay [12]. The GI50 in [13] was 12.5 µM (inactive); in [14], 11.2 µM (inactive); in [15], 14 µM (inactive); in [16], 4.95 µM (inactive); in [17], 17.6 µM (inactive); in assay [18], 12.1 µM (inactive). Moreover, the GI50 was 11.4 µM (inactive) in assay [19] and 4.58 µM (inactive) in [20].

On to `COc1ccc(-n2nnc3c(C#N)c(-c4ccccc4)c(C)n3c2=O)cc1`, for which the GI50 in [1] was > 100 µM (inactive); in assay [2] it was 49.5 µM (inactive); in assay [3] it was 48.9 µM (inactive); in [4], 31.7 µM (inactive); in assay [5], 78.7 µM (inactive); in [6], 80.4 µM (inactive). Further, the GI50 in [7] is 32.7 µM (inactive); in [8], 27.1 µM (inactive); in assay [9], 28 µM (inactive); in assay [10], 23.8 µM (inactive); in [11], > 100 µM (inactive); in [12], 19.1 µM (inactive). Moreover, the GI50 is 84.7 µM (inactive) in assay [13]; 45.4 µM (inactive) in [14]; 53.7 µM (inactive) in assay [15]; > 100 µM (inactive) in [16]; 35.4 µM (inactive) in assay [17]; 18.4 µM (inactive) in assay [18]. In addition, the GI50 was > 100 µM (inactive) in assay [19] and 40.2 µM (inactive) in assay [20].

As for `C/C(=N\Nc1nc2ccccc2n1C)c1ccncn1`, the GI50 in assay [1] is 0.0378 µM (active); in assay [2], < 0.0501 µM (active); in assay [3], 0.265 µM (active); in assay [4], 0.313 µM (active); in assay [5], 0.65 µM (active); in assay [6], 0.0402 µM (active). Further, the GI50 in assay [7] was 0.0904 µM (active); in assay [8], 1.87 µM (inactive); in assay [9], 2.52 µM (inactive); in assay [10] it was 0.129 µM (active); in [11] it was 3.1 µM (inactive); in [12], 0.08 µM (active). For the same compound, the GI50 was 1.52 µM (inactive) in assay [13]; < 0.01 µM (active) in assay [14]; 0.125 µM (active) in [15]; 0.362 µM (active) in assay [16]; 5.38 µM (inactive) in assay [17]; < 0.0152 µM (active) in [18]. In addition, the GI50 is 0.929 µM (active) in assay [19] and 0.0206 µM (active) in [20].

On to `Nc1nn2c(nc(N)c3c(N)n[nH]c32)c1/N=N\c1ccc(Br)cc1`, for which the GI50 in assay [1] is 7.73 µM (inactive); in [2] it was 1.76 µM (inactive); in assay [3], 13.1 µM (inactive); in assay [4] it was 15.1 µM (inactive); in assay [5], 29.9 µM (inactive); in [6] it was > 5.61 µM (inactive). Further, the GI50 in [7] is 6.01 µM (inactive); in assay [8], 18.1 µM (inactive); in assay [9], 12.3 µM (inactive); in [10], 3.71 µM (inactive); in assay [11], 3.32 µM (inactive); in assay [12] it was 40.9 µM (inactive). For the same compound, the GI50 in assay [13] was 66.8 µM (inactive); in assay [14] it was > 100 µM (inactive); in assay [15] it was > 100 µM (inactive); in [16], 3.13 µM (inactive); in [17], 42.9 µM (inactive); in assay [18], 2.16 µM (inactive). Besides, the GI50 in [19] is 3.65 µM (inactive); in [20], > 100 µM (inactive).

For the compound `Nc1ccc(C(=O)N/C(=C\c2cccc([N+](=O)[O-])c2)c2nc3c(O)nc(S)nc3[nH]2)cc1`, the GI50 in assay [1] was > 100 µM (inactive); in [2] it was 44.2 µM (inactive); in assay [3], > 100 µM (inactive); in assay [4], 18.5 µM (inactive); in [5], 42 µM (inactive); in [6] it was > 100 µM (inactive). Besides, the GI50 in assay [7] was 42.7 µM (inactive); in [8] it was 6.61 µM (inactive); in assay [9], 53.7 µM (inactive); in assay [10] it was 20.9 µM (inactive); in [11], 29.9 µM (inactive); in assay [12], 24.5 µM (inactive). Further, the GI50 in assay [13] was > 79.4 µM (inactive); in [14], > 100 µM (inactive); in assay [15] it was 41.9 µM (inactive); in assay [16] it was > 100 µM (inactive); in assay [17], 17.2 µM (inactive); in assay [18], > 100 µM (inactive). Moreover, the GI50 is > 100 µM (inactive) in [19] and > 93.8 µM (inactive) in [20].

For `CS(=O)(=O)OCCCCOS(=O)(=O)CF`, the GI50 in assay [1], in [2], in [3], in assay [4], in assay [5] and in assay [6] was > 100 µM (inactive) throughout. Also, the GI50 in assay [7] was > 100 µM (inactive); in [8], > 100 µM (inactive); in [9], > 100 µM (inactive); in assay [10], > 49.5 µM (inactive); in [11] it was > 100 µM (inactive); in [12], > 100 µM (inactive). Moreover, the GI50 in assay [13] is > 100 µM (inactive); in [14], > 72.1 µM (inactive); in assay [15] it was > 100 µM (inactive); in assay [16], > 100 µM (inactive); in assay [17], > 100 µM (inactive); in [18], > 100 µM (inactive). Besides, the GI50 was > 100 µM (inactive) in assay [19] and > 95.1 µM (inactive) in [20].

In the case of `CC(=O)NCCc1c[nH]c2ccc(Cl)cc12`, the GI50 in assay [1], in assay [2], in assay [3], in assay [4], in [5] and in [6] was > 100 µM (inactive) in each case. The GI50 was > 100 µM (inactive) in assay [7]; 33.4 µM (inactive) in [8]; > 100 µM (inactive) in assay [9]; 79.8 µM (inactive) in assay [10]; > 100 µM (inactive) in assay [11]; > 100 µM (inactive) in assay [12]. Moreover, the GI50 in assay [13], in assay [14], in assay [15], in assay [16], in [17] and in assay [18] was > 100 µM (inactive) throughout. The GI50 in assay [19] and in assay [20] was > 100 µM (inactive) in each case.

As to `COC(=O)CCC(NC(=O)OC(C)(C)C)C(=O)NC(Cc1ccc([N+](=O)[O-])cc1)C(=O)NC(CCC(=O)OC)C(=O)OC` (centres undefined) (Boc-Glu(OMe)-[Phe(4-NO2)]-Glu(OMe)-OMe; configuration not given here), the GI50 in [1] was > 100 µM (inactive); in assay [2], > 100 µM (inactive); in assay [3], > 100 µM (inactive); in [4], 43.5 µM (inactive); in assay [5], > 100 µM (inactive); in assay [6], > 100 µM (inactive). For the same compound, the GI50 was 33.1 µM (inactive) in assay [8]; > 100 µM (inactive) in assay [9]; > 100 µM (inactive) in assay [10]; > 100 µM (inactive) in assay [11]; > 100 µM (inactive) in assay [12]; > 100 µM (inactive) in assay [13]. The GI50 was > 100 µM (inactive) in assay [14]; > 100 µM (inactive) in assay [15]; > 100 µM (inactive) in [16]; > 100 µM (inactive) in assay [17]; 35.4 µM (inactive) in [18]; > 100 µM (inactive) in assay [19]. In [20], the GI50 was > 100 µM (inactive).

(Values after ChEMBL document CHEMBL1201862, “PubChem BioAssay data set” (2004).)
